According to US4537896A, “Thrombin inhibiting arylsulfonyl guanidinophenylalanine amides” (KabiVitrum AB, priority 1982, dated 1985):
Structures can show the parent of a compound that is named as a salt.

How the values were obtained:
[1] = target: T1, human thrombin (Homo sapiens, UniProt P00734); assay: Determination of Ki, inhibition of reaction of thrombin with substrate S-2238; type: biochemical
T1 construct: human thrombin; purchased Sigma Chemical Co., St. Louis, U.S.A
Experimental: (§1) The inhibition of reaction of the enzymes (human thrombin; Sigma Chemical Co., St. Louis, U.S.A. and human factor Xa; KabiVitrum AB, Stockholm) with the substrates (S-2238 resp. S-2222, Kabi Diagnostica, Stockholm) was determined at three different substrate concentrations from 0.3 to 2 km. Six different inhibitor concentrations, which give inhibition from 40% to 90%, were incubated with the enzyme for 30 seconds at 37° C. The buffer composition, ionic strength, pH and enzyme concentration were the same as those recommended in the booklets from Kabi Diagnostica. The initial reaction velocity (ΔA/min) was measured on a recorder at 405 nm. Ki values were than graphically determined from Dixon and Lineweaver-Burk diagrams.
Ki of thrombin is given in mol/l.

[2] = target: T2, human factor Xa (Homo sapiens, UniProt P00742); assay: Determination of Ki, inhibition of reaction of factor Xa with substrate S-2222; type: biochemical; settings: Table 3; read-out: Ki FXa (converted)
T2 construct: human factor Xa; purchased KabiVitrum AB, Stockholm
T2 sequence (P00742 235-488 limits assumed): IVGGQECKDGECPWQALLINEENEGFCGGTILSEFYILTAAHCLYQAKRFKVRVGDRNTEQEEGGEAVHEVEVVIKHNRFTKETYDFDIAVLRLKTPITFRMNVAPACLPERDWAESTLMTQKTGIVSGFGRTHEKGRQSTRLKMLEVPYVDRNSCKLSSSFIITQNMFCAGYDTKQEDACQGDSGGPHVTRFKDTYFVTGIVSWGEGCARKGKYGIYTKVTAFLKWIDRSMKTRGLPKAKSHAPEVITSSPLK
T2 sequence (P00742 41-179 partner limits assumed): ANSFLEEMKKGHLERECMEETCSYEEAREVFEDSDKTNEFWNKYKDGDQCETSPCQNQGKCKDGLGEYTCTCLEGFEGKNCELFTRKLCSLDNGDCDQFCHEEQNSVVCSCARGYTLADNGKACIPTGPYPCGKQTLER
Experimental: as §1

[3] = system: thrombin; assay: Thrombin time, plasma (prolongation of coagulation time initiated by thrombin); type: biochemical, dog; settings: for "Thrombin time" Concentration required to prolong the coagulation time by a factor of 2: Table 3; for Thrombin time, plasma: concentration of the inhibitor which doubles the thrombin time of dog plasma: Table 1, 37° C., 30 seconds incubation
Experimental: A volume of 200 μl citrate-plasma was heated for 1 minute at 37° C. The coagulation was started by adding 10 μl fresh thrombin solution (about 5 NIH U/ml) and the coagulation time was registrated by a fibrinometer. At the inhibition experiments the plasma was incubated for 30 seconds with 10 μl inhibitor solution at different concentrations before the thrombin solutions was added.
"Thrombin time" designates the concentration (mol/l) of the inhibitor, which doubles the thrombin time of dog plasma. The Arg derivates have been synthesized according to ref. 1 and 2.Tos-Gph-OMe has been synthesized according to ref. 6.

[4] = system: trypsin; settings: literature; cited from earlier work
[5] = system: thrombin; settings: literature; cited from earlier work
[6] = system: thrombin; settings: literature; cited from earlier work; remark: listed apart in the source

Question: With CCCC1CCN(C(=O)[C@H](Cc2ccc(NC(=N)N)cc2)NS(=O)(=O)c2cccc3c(N(C)C)cccc23)CC1 [vii] as the compound, how does the Ki ([1]; Table 3) read?
Answer: The Ki was 0.23 µM.

Question: What about the Ki [2] of the same compound?
Answer: The Ki was 200 µM.

Question: What about the “"Thrombin time" Concentration required to prolong the coagulation time by a factor of 2” value (shortened to “"Thrombin time" Concentration required”) [3] of the same compound?
Answer: The value was 1.5.10^-5 mol/l.

Question: What does the source list for CN(C)c1cccc2c(S(=O)(=O)N[C@@H](CCCNC(=N)N)C(=O)N3CCCCC3)cccc12 [Dansyl--Arg--piperidide, reference compound]?
Answer: Ki ([1]; Table 1): 0.09 µM; Thrombin time, plasma: concentration of the inhibitor which doubles the thrombin time of dog plasma [3]: 2.10^-6 mol/l

Question: With CCOC(=O)[C@H](Cc1ccc(NC(=N)N)cc1)NC(=O)c1ccccc1 [Bz-Gph-OEt] as the compound, how does the substrate for trypsin [4] read?
Answer: Its substrate for trypsin is “comparable with Tos-Gph-OMe and Tos-Arg-OMe (TAME)”.

Question: What does the source list for COC(=O)[C@H](Cc1ccc(NC(=N)N)cc1)NS(=O)(=O)c1ccc(C)cc1 [Tos--Gph--OMe]?
Answer: inhibition of thrombin [5]: ability to inhibit the amidase- and esterase activity of thrombin; substrate for / split by thrombin [6]: bad substrate for thrombin; substrate for trypsin [4]: good substrate for trypsin; Ki ([1]; Table 1): 7.5 µM

Question: Which Ki ([1]; Table 2, Gph-derivatives) does the source give for Cc1ccc(S(=O)(=O)N[C@@H](Cc2ccc(NC(=N)N)cc2)C(=O)N2CCCCC2)cc1 [v, Tos--Gph--piperidide] here?
Answer: The Ki was 0.8 µM.

Question: And the Ki [2]?
Answer: Its Ki is 250 µM.

Question: What about the “Thrombin time, plasma: concentration of the inhibitor which doubles the thrombin time of dog plasma” value [3] of the same compound?
Answer: Its value is 1.10^-6 mol/l.

Question: And the “"Thrombin time" Concentration required” value [3]?
Answer: The value was 1.10^-6 mol/l.

Question: With N=C(N)Nc1ccc(C[C@H](NS(=O)(=O)c2ccc3ccccc3c2)C(=O)N2CCOCC2)cc1 [iv, β-Naphthalenesulfonyl--Gph--morpholide] as the compound, how does the Ki ([1]; Table 2, Gph-derivatives) read?
Answer: The Ki was 0.18 µM.

Question: What about the Ki [2] of the same compound?
Answer: Its Ki is 50 µM.

Question: What about the “"Thrombin time" Concentration required” value [3] of the same compound?
Answer: Its value is 8.10^-7 mol/l.

Question: With CN1CCN(C(=O)[C@H](Cc2ccc(NC(=N)N)cc2)NS(=O)(=O)c2cccc3c(N(C)C)cccc23)CC1 [viii] as the compound, how does the Ki ([1]; Table 3) read?
Answer: Its Ki is 0.7 µM.

Question: What about the Ki [2] of the same compound?
Answer: Its Ki is 300 µM.

Question: What about the “"Thrombin time" Concentration required” value [3] of the same compound?
Answer: Its value is 1.6.10^-7 mol/l.

Question: Which Ki ([1]; Table 3) does the source give for CN(C)c1cccc2c(S(=O)(=O)N[C@@H](Cc3ccc(NC(=N)N)cc3)C(=O)N3CCCCC3)cccc12 [i, N^α -Dansyl-p-guanidino-Phe-piperidide hydrochloride] here?
Answer: Its Ki is 0.09 µM.

Question: What about the Ki [2] of the same compound?
Answer: The Ki was 250 µM.

Question: What about the “Thrombin time, plasma: concentration of the inhibitor which doubles the thrombin time of dog plasma” value [3] of the same compound?
Answer: Its value is 6.10^-7 mol/l.

Question: What about the “"Thrombin time" Concentration required” value [3] of the same compound?
Answer: The value was 6.10^-7 mol/l.

Question: With CCCCN(C)C(=O)[C@H](Cc1ccc(NC(=N)N)cc1)NS(=O)(=O)c1cccc2c(N(C)C)cccc12 [ix] as the compound, how does the Ki ([1]; Table 3) read?
Answer: Its Ki is 0.35 µM.

Question: What about the Ki [2] of the same compound?
Answer: The Ki was 130 µM.

Question: And the “"Thrombin time" Concentration required” value [3]?
Answer: Its value is 2.5.10^-7 mol/l.

Question: Which Ki ([1]; Table 2, Gph-derivatives) does the source give for CC1CCN(C(=O)[C@H](Cc2ccc(NC(=N)N)cc2)NS(=O)(=O)c2cccc3ccccc23)CC1 [iii, α-Naphthalenesulfonyl--Gph--4-methylpiperidide] here?
Answer: Its Ki is 0.35 µM.

Question: What about the Ki [2] of the same compound?
Answer: Its Ki is 370 µM.

Question: With CCOC(=O)[C@H](CCCNC(=N)N)NC(=O)c1ccccc1 [BAEE, Bz-Arg-OEt] as the compound, how does the “substrate for / split by thrombin” value [6] read?
Answer: The value was “can be split by thrombin”.

Question: With CN(C)c1cccc2c(S(=O)(=O)N[C@@H](Cc3ccc(NC(=N)N)cc3)C(=O)N3CCCCCC3)cccc12 [vi] as the compound, how does the Ki ([1]; Table 3) read?
Answer: The Ki was 0.08 µM.

Question: And the Ki [2]?
Answer: The Ki was 300 µM.

Question: For Cc1ccc(S(=O)(=O)N[C@@H](CCCNC(=N)N)C(=O)N2CCCCC2)cc1 [Tos--Arg--piperidide, reference compound], which Ki ([1]; Table 1) is on record?
Answer: The Ki was 5 µM.

Question: Which Ki ([1]; Table 2, Gph-derivatives) does the source give for CC1CCN(C(=O)[C@H](Cc2ccc(NC(=N)N)cc2)NS(=O)(=O)c2ccc3ccccc3c2)CC1 [ii, N^α -(Naphthalene-2-sulfonyl)-p-guanidino-Phe-4-methyl-piperidide hydrochloride] here?
Answer: Its Ki is 0.31 µM.

Question: And the Ki [2]?
Answer: Its Ki is 20 µM.

Question: And the “"Thrombin time" Concentration required” value [3]?
Answer: Its value is 1.10^-6 mol/l.
